Measurements as given in US8987249B2, “Substituted 2-Aza-bicyclo[2.2.1]heptane-3-carboxylic acid (benzyl-cyano-methyl)-amides inhibitors of Cathepsin C” (Boehringer Ingelheim International GmbH, priority 2013, dated 2015).

biological target: recombinant human DPPI (Cathepsin C) (Homo sapiens (Human), UniProt P53634); assay: Inhibition of human DPPI (Cathepsin C); assay type: biochemical; conditions: substrate Gly-Arg-AMC
Protocol: Inhibition of Human DPPI (Cathepsin C)
Bovine serum albumin (BSA; Prod. No. A3059) and Dithiothreitol (DTT; Prod. No D0632) were from Sigma. […] The DPP1 inhibitor Gly-Phe-DMK was purchased from MP Biomedicals (Prod.-No. 03DK00625). The recombinant human DPPI was purchased from Prozymex. All other materials were of highest grade commercially available.
The following buffers were used: MES buffer: 25 mM MES, 50 mM NaCl, 5 mM DTT, adjusted to pH 6.0, containing 0.1% BSA; TAGZyme Buffer: 20 mM NaH2PO4, 150 mM NaCl adjusted to pH 6.0 with HCl
Then, 5 μL of substrate in MES buffer (final concentration 50 μM) were added. The microtiter plates were then incubated at room temperature for 30 min. Then, the reaction was stopped by adding 10 μL of Gly-Phe-DMK in MES-buffer (final concentration 1 μM).
The analysis of the data was performed by calculating the percentage of fluorescence in the presence of test compound in comparison to the fluorescence of the vehicle control after subtracting the background fluorescence using the following formula: (RFU(sample)−RFU(background))*100/(RFU(control)−RFU(background))
Data from these calculations were used to generate IC50 values for inhibition of DPPI, respectively.

recombinant human DPPI (Cathepsin C), sequence (P53634 231-394): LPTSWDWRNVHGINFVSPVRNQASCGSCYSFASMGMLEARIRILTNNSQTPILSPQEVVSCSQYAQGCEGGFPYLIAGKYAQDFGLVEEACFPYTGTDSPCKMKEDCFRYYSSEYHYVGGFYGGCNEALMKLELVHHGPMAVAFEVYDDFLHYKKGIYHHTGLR
recombinant human DPPI (Cathepsin C), sequence (P53634 395-463): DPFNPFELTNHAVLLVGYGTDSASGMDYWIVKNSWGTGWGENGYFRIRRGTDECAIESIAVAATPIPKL
recombinant human DPPI (Cathepsin C), sequence (P53634 25-134): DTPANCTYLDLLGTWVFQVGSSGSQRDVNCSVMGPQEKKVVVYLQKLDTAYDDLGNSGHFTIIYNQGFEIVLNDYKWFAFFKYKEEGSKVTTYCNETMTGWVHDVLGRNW

Row | IC50 [nM] | SMILES
1 | 8.6 | CN1Cc2ccc(-c3ccc(C[C@@H](C#N)NC(=O)[C@H]4N[C@@H]5CC[C@H]4C5)c(F)c3)cc2C1 [Example 1, (1S,2S,4R)—N-[(1S)-1-cyano-2-[2-fluoro-4-(2-methylisoindolin-5-yl)phenyl]ethyl]-3-azabicyclo[2.2.1]heptane-2-carboxamide]
2 | 679 | N#CC(Cc1ccc2[nH]ncc2c1)NC(=O)[C@H]1N[C@@H]2CC[C@H]1C2 (stereo partly drawn) [Example 8, (1S,2S,4R)—N-[1-cyano-2-(1H-indazol-5-yl)ethyl]-3-azabicyclo[2.2.1]heptane-2-carboxamide]
3 | 14.2 | COCC(=O)n1cc(-c2ccc(C[C@@H](C#N)NC(=O)[C@H]3N[C@@H]4CC[C@H]3C4)c(F)c2)cn1 [Example 87]
4 | 55.6 | CN1C(=O)Cc2ccc(-c3ccc(CC(C#N)NC(=O)[C@H]4N[C@@H]5CC[C@H]4C5)c(O)c3)cc21 (some centres unmarked) [Example 120]
5 | 182 | CN1C(=O)Cc2ccc(-c3ccc(CC(C#N)NC(=O)[C@H]4N[C@@H]5CC[C@H]4C5)c(OCc4ccccc4)c3)cc21 (some centres unmarked) [Example 122]
6 | 187 | N#CC(Cc1ccc2c(c1)[nH]c(=O)c1ccccc12)NC(=O)[C@H]1N[C@@H]2CC[C@H]1C2 (stereo partly drawn) [Example 123, (1S,2S,4R)—N-[1-cyano-2-(6-oxo-5H-phenanthridin-3-yl)ethyl]-3-azabicyclo[2.2.1]heptane-2-carboxamide]
7 | 187 | CC(C)OCc1cn(-c2ccc(C[C@@H](C#N)NC(=O)[C@H]3N[C@@H]4CC[C@H]3C4)c(F)c2)nn1 [Example 124]
8 | 275 | Cc1cnn(C)c1-c1ccc(C[C@@H](C#N)NC(=O)[C@H]2N[C@@H]3CC[C@H]2C3)c(F)c1 [Example 126]
9 | 860 | N#CC(Cc1ccc2cn[nH]c2c1)NC(=O)[C@H]1N[C@@H]2CC[C@H]1C2 (some centres unmarked) [Example 127]
10 | 2390 | N#CC(Cc1cccc2[nH]c(=O)c3ccccc3c12)NC(=O)[C@H]1N[C@@H]2CC[C@H]1C2 (stereo partly drawn) [Example 128, (1S,2S,4R)—N-[1-cyano-2-(6-oxo-5H-phenanthridin-1-yl)ethyl]-3-azabicyclo[2.2.1]heptane-2-carboxamide]
11 | 82.7 | Cn1c(=O)oc2ccc(-c3ccc(C[C@@H](C#N)NC(=O)[C@H]4N[C@H]5C[C@@H]4[C@@H]4C[C@@H]45)c(F)c3)cc21 [Example 129]
12 | 139 | CC(=O)Nc1ccc(-c2ccc(C[C@@H](C#N)NC(=O)[C@H]3N[C@H]4C[C@@H]3[C@@H]3C[C@@H]34)c(F)c2)cc1 [Example 131]
13 | 286 | Cn1cc2ccc(-c3ccc(C[C@@H](C#N)NC(=O)[C@H]4N[C@H]5C[C@@H]4[C@@H]4C[C@@H]45)c(F)c3)cc2n1 [Example 135]
14 | 59.7 | Cn1ncc2cc(-c3ccc(C[C@@H](C#N)NC(=O)[C@H]4N[C@H]5C[C@@H]4[C@@H]4C[C@@H]45)c(F)c3)ccc21 [Example 137]
15 | 63.1 | N#Cc1ccc(-c2ccc(C[C@@H](C#N)NC(=O)[C@H]3N[C@H]4C[C@@H]3[C@@H]3C[C@@H]34)c(F)c2)cn1 [Example 142]
16 | 1.7 | Cc1nn(C)cc1-c1ccc(C[C@@H](C#N)NC(=O)[C@H]2N[C@@H]3CC[C@H]2C3)c(F)c1 [Example 160]
17 | 2.1 | Cn1cc(-c2ccc(C[C@@H](C#N)NC(=O)[C@H]3N[C@@H]4CC[C@H]3C4)c(F)c2)cn1 [Example 163]
18 | 2.3 | CCCNC(=O)c1cc(-c2ccc(C[C@@H](C#N)NC(=O)[C@H]3N[C@@H]4CC[C@H]3C4)c(F)c2)cs1 [Example 164]
19 | 2.7 | N#C[C@H](Cc1ccc(-c2csc(C(=O)N3CCCC3)c2)cc1F)NC(=O)[C@H]1N[C@@H]2CC[C@H]1C2 [Example 165]

Row | IC50 [nM] | SMILES
20 | 3.7 | N#C[C@H](Cc1ccc(-c2cnn3cccnc23)cc1F)NC(=O)[C@H]1N[C@@H]2CC[C@H]1C2 [Example 168]
21 | 4.2 | CN(C)C(=O)c1cc(-c2ccc(C[C@@H](C#N)NC(=O)[C@H]3N[C@@H]4CC[C@H]3C4)c(F)c2)cs1 [Example 170]
22 | 5.2 | CCOc1nc(-c2ccc(C[C@@H](C#N)NC(=O)[C@H]3N[C@@H]4CC[C@H]3C4)c(F)c2)cs1 [Example 172]
23 | 5.5 | N#C[C@H](Cc1ccc(-c2cnc(C3CC3)s2)cc1F)NC(=O)[C@H]1N[C@@H]2CC[C@H]1C2 [Example 173]
24 | 5.6 | N#C[C@H](Cc1ccc(-c2cnc3cccnn23)cc1F)NC(=O)[C@H]1N[C@@H]2CC[C@H]1C2 [Example 174]
25 | 6.3 | COC(=O)c1ccc(-c2ccc(C[C@@H](C#N)NC(=O)[C@H]3N[C@@H]4CC[C@H]3C4)c(F)c2)o1 [Example 175]
26 | 7.4 | N#C[C@H](Cc1ccc(-c2ccc(S(=O)(=O)N3CCCCC3)cc2)cc1F)NC(=O)[C@H]1N[C@@H]2CC[C@H]1C2 [Example 177]
27 | 7.5 | CCOC(=O)c1ccc(-c2ccc(C[C@@H](C#N)NC(=O)[C@H]3N[C@@H]4CC[C@H]3C4)c(F)c2)s1 [Example 179]
28 | 9.8 | N#C[C@H](Cc1ccc(N2CCN(C3CC3)CC2)cc1F)NC(=O)[C@H]1N[C@@H]2CC[C@H]1C2 [Example 187]
29 | 14.7 | CC1(C)CCN(c2ccc(C[C@@H](C#N)NC(=O)[C@H]3N[C@@H]4CC[C@H]3C4)c(F)c2)CC1 [Example 195]
30 | 15.6 | N#C[C@H](Cc1ccc(N2CCCCC2)cc1F)NC(=O)[C@H]1N[C@@H]2CC[C@H]1C2 [Example 197]
31 | 15.8 | COC(=O)c1cc(C)c(-c2ccc(C[C@@H](C#N)NC(=O)[C@H]3N[C@@H]4CC[C@H]3C4)c(F)c2)s1 [Example 198]
32 | 22.9 | N#C[C@H](Cc1ccc(-c2ccc(C(=O)N3CCOCC3)cc2)cc1F)NC(=O)[C@H]1N[C@@H]2CC[C@H]1C2 [Example 202]
33 | 26.3 | Cn1c(=O)c2cc(CC(C#N)NC(=O)[C@H]3N[C@@H]4CC[C@H]3C4)ccc2c2ccccc21 (some centres unmarked) [Example 206]
34 | 29.1 | N#CC(Cc1ccc2c(c1)[nH]c(=O)c1cc(F)ccc12)NC(=O)[C@H]1N[C@@H]2CC[C@H]1C2 (some centres unmarked) [Example 207]
35 | 29.8 | Cc1cn(C)c(-c2ccc(C[C@@H](C#N)NC(=O)[C@H]3N[C@@H]4CC[C@H]3C4)c(F)c2)n1 [Example 208]
36 | 45.8 | N#CC(Cc1ccc2c(c1)CCc1ccccc1-2)NC(=O)[C@H]1N[C@@H]2CC[C@H]1C2 (some centres unmarked) [Example 209]
37 | 49.4 | N#C[C@H](Cc1ccc(-c2ccc(C(=O)N3CCCCC3)cc2)cc1F)NC(=O)[C@H]1N[C@@H]2CC[C@H]1C2 [Example 210]
38 | 61.1 | CN(C)C(=O)c1ccc(-c2ccc(C[C@@H](C#N)NC(=O)[C@H]3N[C@@H]4CC[C@H]3C4)c(F)c2)cc1 [Example 211]

Row | IC50 [nM] | SMILES
39 | 296 | N#CC(Cc1ccc2oc3ccccc3c2c1)NC(=O)[C@H]1N[C@@H]2CC[C@H]1C2 (some centres unmarked) [Example 212]
40 | 619 | N#CC(Cc1ccc2[nH]c3ccccc3c2c1)NC(=O)[C@H]1N[C@@H]2CC[C@H]1C2 (some centres unmarked) [Example 213]
41 | 815 | CS(=O)(=O)c1cc(-c2ccc(C[C@@H](C#N)NC(=O)[C@H]3N[C@H]4CC[C@@H]3C4)c(F)c2)ccc1C#N [Example 214]
42 | 882 | N#CC(Cc1cccc2[nH]c(=O)c3cc(F)ccc3c12)NC(=O)[C@H]1N[C@@H]2CC[C@H]1C2 (some centres unmarked) [Example 215]
43 | 3.7 | N#C[C@H](Cc1ccc(-c2ccc(S(=O)(=O)N3CCOCC3)cc2)cc1F)NC(=O)[C@H]1N[C@@H]2CC[C@H]1C2 [Example 217]
44 | 253 | N#C[C@H](Cc1ccc2ccccc2c1)NC(=O)[C@H]1N[C@@H]2CC[C@H]1C2 [Example 220]
45 | 1.2 | CN1CCN(S(=O)(=O)c2cccc(-c3ccc(C[C@@H](C#N)NC(=O)[C@H]4N[C@@H]5CC[C@H]4C5)c(F)c3)c2)CC1 [Example 224]
46 | 0.8 | CN1CCN(C(=O)c2cc(-c3ccc(C[C@@H](C#N)NC(=O)[C@H]4N[C@@H]5CC[C@H]4C5)c(F)c3)cs2)CC1 [Example 225]
47 | 0.9 | N#C[C@H](Cc1ccc(-c2csc(C(=O)N3CCn4nccc4C3)c2)cc1F)NC(=O)[C@H]1N[C@@H]2CC[C@H]1C2 [Example 226]
48 | 1 | CC(C)N1CCN(C(=O)c2cc(-c3ccc(C[C@@H](C#N)NC(=O)[C@H]4N[C@@H]5CC[C@H]4C5)c(F)c3)cs2)CC1 [Example 227]
49 | 2.2 | N#C[C@H](Cc1ccc(-c2csc(C(=O)N3CCN(CC(F)(F)F)CC3)c2)cc1F)NC(=O)[C@H]1N[C@@H]2CC[C@H]1C2 [Example 232]
50 | 4.8 | N#C[C@H](Cc1ccc(-c2cnn(S(=O)(=O)c3ccccc3)c2)cc1F)NC(=O)[C@H]1N[C@@H]2CC[C@H]1C2 [Example 243]
51 | 26.3 | CN(C)CCn1ccc(-c2ccc(C[C@@H](C#N)NC(=O)[C@H]3N[C@@H]4CC[C@H]3C4)c(F)c2)cc1=O [Example 256]
52 | 39.9 | N#C[C@H](Cc1ccc(-c2cc[nH]c(=O)c2)cc1F)NC(=O)[C@H]1N[C@@H]2CC[C@H]1C2 [Example 257]
53 | 17 | CS(=O)(=Nc1cccc(-c2ccc(C[C@@H](C#N)NC(=O)[C@H]3N[C@@H]4CC[C@H]3C4)c(F)c2)c1)C1CCOCC1 (some centres unmarked) [Example 264]
54 | 62.7 | C[S+]([O-])c1cc(=O)n(-c2ccc(C[C@@H](C#N)NC(=O)[C@H]3N[C@@H]4CC[C@H]3C4)c(F)c2)cc1F (some centres unmarked) [Example 265]
55 | 28.9 | CCc1cc(-c2ccc(C[C@@H](C#N)NC(=O)[C@H]3N[C@@H]4CC[C@H]3C4)c(F)c2)nn1CC(C)C [Example 273]
56 | 33 | CCOc1cc(-c2ccc(C[C@@H](C#N)NC(=O)[C@H]3N[C@@H]4CC[C@H]3C4)c(F)c2)cc(S(C)(=O)=O)c1 [Example 275]
